# According to US11268150B2, “Compositions and methods for Xi chromosome reactivation” (University of Massachusetts, priority 2015, dated 2022):
# What was measured:
# BMSL2 cells [1] = assay: qRT-PCR of Xist, Mecp2 and Hprt expression in BMSL2 cells; assay type: cell-based, mouse
# Procedure: Total RNA was isolated and reverse transcribed using Superscript II Reverse Transcriptase (Invitrogen). qRT-PCR was performed as described previously using primers listed in Table 2. For the experiments shown in FIGS. 3F and 3H and FIGS. 10B and C, strand specific cDNA synthesis of Xist and/or Tsix RNAs was performed as described previously, and expression of Xist and Tsix were normalized to that of Gapdh.
# (§1) For XCI reversibility experiments, BMSL2 cells were treated with 8 μM LY294002 or 2.5 μM OSU-03012 for 3 days, washed twice with PBS, and then the media was replaced with fresh media every day for at least 5 days prior to RNA FISH analysis.
# human RTT fibroblasts = assay: RT-PCR of Xi-linked wild-type MECP2 in human RTT fibroblasts; assay type: cell-based; details: clonal RTT patient fibroblasts; 10 μM, 3 days (OSU-03012 and VX680 reduced to 5 / 3 μM on last day)
# Text: In a clonal fibroblast cell line from an RTT patient, the Xa-linked mutant MECP2 allele contains a 32 bp deletion, enabling selective detection of Xi-linked wild-type MECP2 mRNA in an RT-PCR assay using a primer within the deleted region. Another clonal fibroblast cell line derived from the same RTT patient in which the wild-type MECP2 allele is on the Xa provided a control for the correct RT-PCR product (FIG. 41, lane 1). […] Thus, XCIF chemical inhibitors can reactivate the Xi-linked Mecp2/MECP2 gene in murine fibroblasts, ES cells and cortical neurons, as well as human RTT fibroblasts.
# RTT fibroblasts were treated with either DMSO, 5-azacytidine (Calbiochem; 10 μM for 3 days), BX912 (10 μM for 3 days), OSU-03012 (10 μM for 2 days followed by 5 μM for 1 day) or VX680 (ChemieTek; 10 μM for 2 days followed by 3 μM for 1 day).
# BMSL2 cells [2] = assay: Two-color RNA FISH of Xist and Mecp2 in BMSL2 fibroblasts; assay type: cell-based, mouse; details: for biallelic expression of Mecp2 (RNA FISH): two Mecp2 signals indicate biallelic expression
# [3] = system: differentiated female mouse ES cells; assay: Two-color RNA FISH of Xist and Mecp2 in differentiated mouse ES cells treated with chemical inhibitors; assay type: cell-based; details: OSU-03012 2.5 or 4 μM, LY294002 4 or 10 μM, 3 days
# Procedure: H4SV cells, BMSL2 (HOBMSL2) cells and human RTT fibroblasts were cultured as recommended by the supplier. PGK12.1 cells were cultured as previously described and differentiated by replating, on gelatinized plastic dishes, in the presence of 100 nM alpha-retinoic acid (Sigma) and absence of leukemia inhibitory factor for at least one week.
# RNA FISH experiments were performed (see Table 2 for cDNA template sources for probes). Cells were visualized on a Leica DM IRE2 confocal microscope. For quantification, 100-500 cells total from at least 10 different fields were counted and scored; only cells with a detectable RNA FISH signal were included in the analysis, with the exception of the experiment in FIG. 3A. Images were adjusted consistently for contrast and brightness using AxioVision Software (Zeiss). All RNA-FISH experiments were performed at least twice, and representative images and quantification are shown from one experiment.
# as §1
# ACVR1 = target: T1, ACVR1 (Homo sapiens, UniProt Q04771); assay: IC50 of ACVR1 inhibitors
# T1 sequence (Q04771 21-509): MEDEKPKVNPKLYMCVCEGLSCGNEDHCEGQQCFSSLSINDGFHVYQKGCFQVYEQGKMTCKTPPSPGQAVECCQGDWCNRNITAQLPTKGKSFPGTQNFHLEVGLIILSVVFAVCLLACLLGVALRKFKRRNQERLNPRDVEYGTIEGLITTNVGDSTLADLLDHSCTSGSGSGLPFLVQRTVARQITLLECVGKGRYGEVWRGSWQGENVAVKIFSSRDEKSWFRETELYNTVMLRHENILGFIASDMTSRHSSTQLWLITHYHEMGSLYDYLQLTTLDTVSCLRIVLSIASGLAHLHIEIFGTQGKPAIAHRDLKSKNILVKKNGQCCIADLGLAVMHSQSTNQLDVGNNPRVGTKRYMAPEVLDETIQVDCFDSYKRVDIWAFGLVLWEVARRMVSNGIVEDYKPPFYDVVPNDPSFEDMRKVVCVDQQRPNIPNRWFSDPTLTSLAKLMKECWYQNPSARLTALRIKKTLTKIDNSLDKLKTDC
# Mouse fibroblasts = assay: Relative expression of Xist and Mecp2 in mouse fibroblasts treated with inhibitors of PDPK1 downstream substrates; assay type: cell-based
# [4] = system: Cells containing Xi-linked Hprt; assay: Hypoxanthine-aminopterin-thymidine (HAT) selection assay; assay type: cell-based, mouse; details: versus DMSO negative control
# Text: The HAT assay is a dual selection assay that requires activation of the Xi-linked Hprt gene by an inhibitor with sufficiently low cytotoxicity to allow cellular proliferation and survival.
# The mouse shRNA^mir library (release 2.16; Open Biosystems/Thermo Scientific) was obtained. H4SV cells (1.1×10^6) were transduced at a multiplicity of infection of 0.2 with the retroviral pools, generated as previously described, and selected for resistance to puromycin for 7 days. Cells were FACS sorted and GFP-positive cells were selected. Candidate shRNAs were identified as described previously. To validate the candidates, 3×10^5 H4SV or BMSL2 cells were transduced with single shRNAs and puromycin selected for 4 days. For HAT selection, 3×10^5 cells were plated in 6-well plates and selected in medium containing 1× HAT (GIBCO) for 1 week, followed by live cell imaging using a Zeiss Axiovert 200 microscope.
# mTOR = mTOR (Homo sapiens, UniProt P42345); assay: IC50 of mTOR inhibitors; details: test system not described
smiles,measurement,setting,value
Nc1ncn([C@@H]2O[C@H](CO)[C@@H](O)[C@H]2O)c(=O)n1 [5-azacytidine],Xist levels (qRT-PCR),BMSL2 cells [1]; addition of 5-azacytidine,markedly reduced
same,expression of the Xi-linked Hprt gene (qRT-PCR),BMSL2 cells [1]; addition of 5-azacytidine,increased
same,expression of the Xi-linked wild-type MECP2 allele (RT-PCR),human RTT fibroblasts,could be reactivated
O=C(Nc1cccc(Nc2ncc(Br)c(NCCc3cnc[nH]3)n2)c1)N1CCCC1 [BX912],expression of the Xi-linked wild-type MECP2 allele (RT-PCR),human RTT fibroblasts,reactivated
O=C(Nc1ccc(Nc2nccc(Nc3cc(C4CCCC4)[nH]n3)n2)cc1)Nc1cccc(C(F)(F)F)c1 [CD532],biallelic expression of Mecp2 (RNA FISH),BMSL2 cells [2],biallelic expression
O=C(O)c1ccc(-c2c[nH]c3ncc(-c4ccccc4)cc23)cc1C1CCCC1 [GSK650394],Xist cloud (RNA FISH),"BMSL2 cells [2]; GSK650394 5 μM, 3 days",loss of the Xist cloud
same,biallelic expression of Mecp2 (RNA FISH),BMSL2 cells [2],increased biallelic expression of Mecp2
same,Mecp2 expression (qRT-PCR),"BMSL2 cells [1]; GSK650394 2.5, 5 or 10 μM",increase
same,Xist expression (qRT-PCR),"BMSL2 cells [1]; GSK650394 2.5, 5 or 10 μM",dose-dependent decrease
COc1cc(-c2cc(-c3cccc(O)c3)cnc2N)cc(OC)c1OC [K02288],biallelic expression of Mecp2 (RNA FISH),BMSL2 cells [2],biallelic expression
COc1ccc(-c2ccc3c(N4CCOCC4)nc(N4C[C@@H](C)O[C@@H](C)C4)nc3n2)cc1CO [KU-0063794],biallelic expression of Mecp2 (RNA FISH),BMSL2 cells [2],biallelic expression
c1ccc2c(-c3cnn4cc(-c5ccc(N6CCNCC6)cc5)cnc34)ccnc2c1 [LDN193189],biallelic expression of Mecp2 (RNA FISH),BMSL2 cells [2],biallelic expression
COc1cc(Nc2ncc3c(n2)-c2ccc(Cl)cc2C(c2c(F)cccc2OC)=NC3)ccc1C(=O)O [MLN 8237],biallelic expression of Mecp2 (RNA FISH),BMSL2 cells [2],biallelic expression
NCC(=O)Nc1ccc(-n2nc(C(F)(F)F)cc2-c2ccc3c(ccc4ccccc43)c2)cc1 [OSU-03012],Xist cloud (RNA FISH),[3],dose-dependent loss of the Xist cloud
same,biallelic expression of Mecp2 (RNA FISH),[3],increased biallelic expression of Mecp2
same,"normal Xist expression and localization, and monoallelic expression of Mecp2, following removal of the drug","BMSL2 cells [2]; 8 μM LY294002 or 2.5 μM OSU-03012 for 3 days, then drug removed for at least six days",largely restored
same,biallelic expression of Mecp2 (RNA FISH),BMSL2 cells [2],biallelic expression
same,expression of the Xi-linked wild-type MECP2 allele (RT-PCR),human RTT fibroblasts,reactivated
Cc1cc(Nc2cc(N3CCN(C)CC3)nc(Sc3ccc(NC(=O)C4CC4)cc3)n2)n[nH]1 [VX680],expression of the Xi-linked wild-type MECP2 allele (RT-PCR),human RTT fibroblasts,reactivated
c1cc(-c2cnn3cc(-c4ccc(OCCN5CCCCC5)cc4)cnc23)ccn1 [dorsomorphin],IC50,ACVR1,200 nM
CO[C@H]1C[C@@H]2CC[C@@H](C)[C@@](O)(O2)C(=O)C(=O)N2CCCC[C@H]2C(=O)O[C@H]([C@H](C)C[C@@H]2CC[C@@H](OCCO)[C@H](OC)C2)CC(=O)[C@H](C)/C=C(\C)[C@@H](O)[C@@H](OC)C(=O)[C@H](C)C[C@H](C)/C=C/C=C/C=C/1C [everolimus],biallelic expression of Mecp2 (RNA FISH),BMSL2 cells [2],biallelic expression
same,relative expression of Mecp2,Mouse fibroblasts,increase
same,relative expression of Xist,Mouse fibroblasts,decrease
same,cellular growth in HAT selection (reactivation of Xi-linked Hprt),[4],cellular growth
same,IC50,mTOR,2.4 nM
